Reference: patent US8158656B2, “2-indolinone derivatives as multi-target protein kinase inhibitors and histone deacetylase inhibitors” (Shenzhen Chipscreen Biosciences Ltd., priority 2008, dated 2012)

Tests used:
HDAC7 = target: T1, HDAC7 (Homo sapiens, UniProt Q8WUI4); assay: Nur77 reporter assay in HeLa cells; type: cell-based; conditions: for HDAC7 (Nur77 reporter assay) % Max Resp of CS055 at 3 μM: relative to CS055 at 3 μM; for EC50: 24 hours
T1 construct: endogenous in cells; host or cells: HeLa
T1 sequence (Q8WUI4 1-952): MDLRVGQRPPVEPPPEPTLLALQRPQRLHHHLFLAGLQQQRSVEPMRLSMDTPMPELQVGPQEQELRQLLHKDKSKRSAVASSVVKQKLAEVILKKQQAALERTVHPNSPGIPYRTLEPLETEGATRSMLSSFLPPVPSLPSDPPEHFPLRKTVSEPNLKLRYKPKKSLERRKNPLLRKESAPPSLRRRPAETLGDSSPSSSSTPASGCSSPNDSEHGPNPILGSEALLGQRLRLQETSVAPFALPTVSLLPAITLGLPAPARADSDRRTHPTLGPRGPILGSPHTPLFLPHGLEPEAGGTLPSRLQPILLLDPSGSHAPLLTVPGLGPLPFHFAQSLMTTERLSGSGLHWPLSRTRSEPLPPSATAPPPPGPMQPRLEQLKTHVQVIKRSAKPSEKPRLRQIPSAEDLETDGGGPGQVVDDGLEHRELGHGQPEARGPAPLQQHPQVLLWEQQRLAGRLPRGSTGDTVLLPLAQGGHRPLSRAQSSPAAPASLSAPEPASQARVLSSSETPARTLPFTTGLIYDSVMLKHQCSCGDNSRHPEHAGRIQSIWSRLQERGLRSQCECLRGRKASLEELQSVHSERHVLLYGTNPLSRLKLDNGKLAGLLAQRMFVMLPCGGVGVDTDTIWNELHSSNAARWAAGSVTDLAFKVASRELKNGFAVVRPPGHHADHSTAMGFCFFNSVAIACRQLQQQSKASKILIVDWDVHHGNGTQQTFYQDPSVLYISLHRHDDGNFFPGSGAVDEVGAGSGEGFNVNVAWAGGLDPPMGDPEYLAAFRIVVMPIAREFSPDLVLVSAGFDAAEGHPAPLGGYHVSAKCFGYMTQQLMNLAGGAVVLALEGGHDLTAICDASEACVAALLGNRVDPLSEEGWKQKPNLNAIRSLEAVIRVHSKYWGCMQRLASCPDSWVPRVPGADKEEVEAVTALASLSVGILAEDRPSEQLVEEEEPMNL
Description: (§1) HDAC subtype selectivity inhibition assay of tested compounds was carried out by several reporter gene assays experiments. Briefly, HeLa cells were seeded in 96-well plates the day before transfection to give a confluence of 50-80%. Cells were transfected with one of reporter gene plasmid containing a promoter sequence or response element upstream of a luciferase gene construct using FuGene6 transfection reagent according to the manufacturer's instruction (Roche). The promoters or response elements including p21-promoter, gdf11-promoter, MEF-binding element (MEF2), Nur77-promoter were fused upstream to the luciferase gene reporter construct. For normalizing the transfection efficiency, a GFP expression plasmid was cotransfected. Cells were allowed to express protein for 24 hours followed by addition of individual compounds or the vehicle (DMSO). 24 hours later the cells were harvested, and the luciferase assay and GFP assay were performed using corresponding assay kits according to the manufacturer's instructions (Promega).

Class I HDAC = assay: P21 reporter assay in HeLa cells; type: cell-based, human; conditions: for Class I HDAC (P21 reporter assay) % Max Resp of CS055 at 3 μM: relative to CS055 at 3 μM; for EC50: 24 hours
Description: as §1

PDGFRβ NIH-3T3 cells = assay: PDGF ligand-dependent cell proliferation; type: cell-based; conditions: Mus musculus, NIH3T3; NIH-3T3 expressing human PDGFRβ, PDGF BB 50 ng/ml, 72 hours, MTS
Description: Measurement of in vivo inhibition on receptor ligand-dependent cell proliferation: PDGF dependent cell proliferation:
NIH-3T3 mouse fibroblasts cell line engineered to stably express human PDGFRβ was constructed and used to evaluate PDGF dependent cell proliferation. PDGFRβ NIH-3T3 cells were plated into 96-well plates at 5,000 per well and incubated with serum-free medium for 24 hours. Compounds and PDGF BB (50 ng/ml) were added and incubated for 72 hours in serum-free medium. The effects on proliferation were determined by addition of MTS reagent (Promega) according to the instruction, incubation for 2 hours at 37° C. in CO2 incubator, and record the absorbance at 490 nm using an ELISA plate reader.

total HDAC enzyme = assay: Total HDAC enzyme activity, HDAC Fluorimetric Assay (HeLa extract); type: biochemical, human
Description: Measurement of in vitro inhibition of total HDAC enzyme activity:
The in vitro inhibition of total HDAC enzyme was determined by HDAC Fluorimetric Assay/Drug Discovery Kit (BIOMOL) according to manufacture's instruction. • 1. Add Assay buffer, diluted trichostatin A or test inhibitor to appropriate wells of the microtiter plate. Following table lists examples of various assay types and the additions required for each test.
• 2. Add diluted HeLa extract or other HDAC sample to all wells except those that are to be “No Enzyme Controls” (Blank). • 3. Allow diluted Fluor de Lys™ Substrate and the samples in the microtiter plate to equilibrate to assay temperature (25° C.). • 4. Initiate HDAC reactions by adding diluted substrate (25 μl) to each well and mixing thoroughly. • 5. Allow HDAC reactions to proceed for desired length of time and then stop them by addition of Fluor de Lys™ Developer (50 μl). Incubate plate at room temperature (25° C.) for 10-15 min. • 6. Read samples in a microtiter-plate reading fluorimeter capable of excitation at a wavelength in the range 350-380 nm and detection of emitted light in the range 440-460 nm. Measurement of in vivo inhibition of HDAC subtype activity: […]

HCT-8 = assay: Tumor cell proliferation (MTS), HCT-8; type: cell-based; conditions: Homo sapiens, HCT-8, 72 hours
Description: Measurement of in vivo cell proliferation:
Tumor cells were trypsinized and plated into 96-well plates at 3,000 per well and incubated in complete medium with 10% FBS for 24 hours. Compounds were added over a final concentration range of 100 μmol/L to 100 nmol/L in 0.1% DMSO and incubated for 72 hours in complete medium. The effects on proliferation were determined by addition of MTS reagent (Promega) according to the instruction, incubation for 2 hours at 37° C. in CO2 incubator, and record the absorbance at 490 nm using an ELISA plate reader.

HDAC4/5 = assay: MEF2 reporter assay in HeLa cells; type: cell-based, human; conditions: for HDAC4/5 (MEF2 reporter assay) % Max Resp of CS055 at 3 μM: relative to CS055 at 3 μM; for EC50: 24 hours
Description: as §1

Compound | HDAC7 (Nur77 reporter assay) % Max Resp of CS055 at 3 μM (HDAC7) [%] | % inhibition of total HDAC enzyme activity at 30 μM (total HDAC enzyme) [%] | GI50 (HCT-8) [µM] | EC50 (HDAC7) [nM] | EC50 (Class I HDAC) [nM] | EC50 (HDAC4/5) [nM] | Class I HDAC (P21 reporter assay) % Max Resp of CS055 at 3 μM (Class I HDAC) [%] | GI50 (PDGFRβ NIH-3T3 cells) [nM] | HDAC4/5 (MEF2 reporter assay) % Max Resp of CS055 at 3 μM (HDAC4/5) [%]
Cc1[nH]c(/C=N/N=C2\C(=O)Nc3ccc(F)cc32)c(C)c1C(=O)NCCCNc1ccc(C(=O)Nc2ccccc2N)cn1 [Example 7, N-(2-aminophenyl)-6-(3-(2-(((5-fluoro-2-oxoindolin-3-ylidene)hydrazono)-methyl)-3,5-dimethyl-1H-pyrrole-4-carboxamido)propylamino)nicotinamide] | 12.4 | 7.80 | > 60 |  |  |  | 6.2 | > 1000 | 2.6
Cc1[nH]c(/C=C2\C(=O)Nc3ccc(F)cc32)c(C)c1C(=O)NCCCNc1ccc(C(=O)Nc2ccccc2N)cn1 [Example 6, (Z)-N-(2-aminophenyl)-6-(3-(2-((5-fluoro-2-oxoindolin-3-ylidene)methyl)-3,5-dimethyl-1H-pyrrole-4-carboxamido)propylamino)nicotinamide] | 88.1 | 12.50 | > 60 | 2500 | 2500 | 1000 | 74.6 | > 1000 | 44.2
Cc1[nH]c(/C=C2\C(=O)Nc3ccc(F)cc32)c(C)c1C(=O)NCCNc1ccc(C(=O)Nc2ccccc2N)cn1 [Example 3, (Z)-N-(2-aminophenyl)-6-(2-(2-((5-fluoro-2-oxoindolin-3-ylidene)methyl)-3,5-dimethyl-1H-pyrrole-4-carboxamido)ethylamino)nicotinamide] | 113.5 | 9.20 | > 60 | 2900 | 2300 | 2200 | 131.7 | > 1000 | 83.2
Cc1[nH]c(/C=C2\C(=O)Nc3ccc(F)cc32)c(C)c1C(=O)NCCCCNc1ccc(C(=O)Nc2ccccc2N)cn1 [Example 9, (Z)-N-(2-aminophenyl)-6-(4-(2-((5-fluoro-2-oxoindolin-3-ylidene)methyl)-3,5-dimethyl-1H-pyrrole-4-carboxamido)butylamino)nicotinamide] | 88.7 | 6.30 | > 60 | 13200 | 13400 | 20000 | 89.1 | 105 | 53.6

More lines, main results first:

HDAC7 (Nur77 reporter assay) % Max Resp of CS055 at 3 μM (HDAC7) [%] | % inhibition of total HDAC enzyme activity at 30 μM (total HDAC enzyme) [%] | GI50 (HCT-8) [µM] | EC50 (HDAC7) [nM] | EC50 (Class I HDAC) [nM] | EC50 (HDAC4/5) [nM] | Compound | Class I HDAC (P21 reporter assay) % Max Resp of CS055 at 3 μM (Class I HDAC) [%] | GI50 (PDGFRβ NIH-3T3 cells) [nM] | HDAC4/5 (MEF2 reporter assay) % Max Resp of CS055 at 3 μM (HDAC4/5) [%]
4.5 | 1.00 | > 60 |  |  |  | Cc1[nH]c(/C=N/N=C2\C(=O)Nc3ccc(F)cc32)c(C)c1C(=O)NCCNc1ccc(C(=O)Nc2ccc(F)cc2N)cn1 [Example 14, N-(2-amino-4-fluorophenyl)-6-(2-(2-(((5-fluoro-2-oxoindolin-3-ylidene)-hydrazono)methyl)-3,5-dimethyl-1H-pyrrole-4-carboxamido)ethylamino)nicotinamide] | 2.1 | > 1000 | 2.4
1.0 | 3.50 | > 60 |  |  |  | Cc1[nH]c(/C=N/N=C2\C(=O)Nc3ccc(F)cc32)c(C)c1C(=O)NCCCCNc1ccc(C(=O)Nc2ccc(F)cc2N)cn1 [Example 20, N-(2-amino-4-fluorophenyl)-6-(4-(2-(((5-fluoro-2-oxoindolin-3-ylidene)-hydrazono)methyl)-3,5-dimethyl-1H-pyrrole-4-carboxamido)butylamino)nicotinamide] | 2.8 | > 1000 | 16.3
3.5 | 4.00 | > 60 |  |  |  | Cc1[nH]c(/C=N/N=C2\C(=O)Nc3ccc(F)cc32)c(C)c1C(=O)NCCCNc1ccc(C(=O)Nc2ccc(F)cc2N)cn1 [Example 17, N-(2-amino-4-fluorophenyl)-6-(3-(2-(((5-fluoro-2-oxoindolin-3-ylidene)-hydrazono)methyl)-3,5-dimethyl-1H-pyrrole-4-carboxamido)propylamino)nicotinamide] | 3.4 | > 1000 | 10.8
6.4 | −2.60 | > 60 |  |  |  | Cc1[nH]c(/C=C2\C(=O)Nc3ccc(F)cc32)c(C)c1C(=O)NCCNc1ccc(C(=O)Nc2ccc(F)cc2N)cn1 [Example 13, (Z)-N-(2-amino-4-fluorophenyl)-6-(2-(2-((5-fluoro-2-oxoindolin-3-ylidene)-methyl)-3,5-dimethyl-1H-pyrrole-4-carboxamido)ethylamino)nicotinamide] | 2.1 | > 1000 | 0.5
6.0 | 7.30 | > 60 |  |  |  | Cc1[nH]c(/C=C2\C(=O)Nc3ccc(F)cc32)c(C)c1C(=O)NCCCCNc1ccc(C(=O)Nc2ccc(F)cc2N)cn1 [Example 19, (Z)-N-(2-amino-4-fluorophenyl)-6-(4-(2-((5-fluoro-2-oxoindolin-3-ylidene)-methyl)-3,5-dimethyl-1H-pyrrole-4-carboxamido)butylamino)nicotinamide] | 2.3 | > 1000 | 1.9
